From USRE32935E, “Non-toxic organotin stabilizers for vinyl chloride polymers” (M&T Chemicals, Inc., priority 1985, dated 1989)
Where two headings read alike, the source gives them in different places.

Legend:
[1] = extraction of tin from blow molded vinyl chloride polymer bottles; format: physicochemical; details: 49° C
Protocol: A number of 16 ounce (475 cc) capacity cylindrical bottles were prepared by blow molding using the following formulation: […]
The three stabilizers evaluated were n-octyltin-S,S',S"-tri(isooctyl mercaptoacetate), di-n-octyltin-S,S'-bis(isooctyl mercaptoacetate) and a mixture containing equal parts by weight of these two compounds.
The bottles were filled with the desired extractant and then placed in an oven maintained at a temperature of 49° C. for the time periods specified in the following table. A portion of the contents of the bottle was then analyzed to determine the concentration of tin.

[2] = migration from milled/pressed polyvinyl chloride sheet into extractants (colorimetric tin analysis); format: physicochemical; details: 10 days, 40° C; distilled water, 3% acetic acid, peanut oil, 10% ethanol; 1.5 parts stabilizer
Protocol: A mixture containing 100 parts of a commercially available vinyl chloride homopolymer(Solvic 223), 0.02 part of a half glycol ester -half calcium soap of montanic acid (available as Hoechst Wax OP) together with 1.5 parts of mono-n-octyltin-S,S',S"-tris(isooctylmercaptoacetate) was blended by placing the components on a 2-roll mill wherein the roll temperature was between 160° and 170° C. During the three minute milling period a continuous sheet formed around one of the rollers and was removed. The sheet measured 1.3 m.m. in thickness and about 300 cm.^2 in area. The sheet was pressed at a temperature of 170° C. to obtain a thickness of 1.2 m.m. The total pressing time, including a two minute preheating period, was five minutes. Square samples measurng 30 cm.^2 in total surface area were immersed in one of the extractants for 10 days, during which time the temperature of the extractant was maintained at 40° C. The extractants employed were distilled water, a 3% aqueous solution of acetic acid, peanut oil and a 10% by weight aqueous solution of ethanol. […] The quantity of peanut oil was 30 c.c.
The migration of stabilizer from the polyvinyl chloride sample into the extractant was determined by measuring the concentration of tin in the extractant using colormetric analysis of the tin - pyrocatechol violet complex. […]

[3] = relative acute toxicity of the isooctylmercaptoacetate derivatives; format: in vivo
Excerpt: This is contrary to the generally accepted, although inaccurate, generalization that a monoalkyltin compound is less toxic than the corresponding di- and trialkyltin compounds. […] This finding directly contradicts data concerning the relative toxicities of mono-, di- and triorganotin compounds that were published prior to March, 1973, the filing date of Applicant's earliest application disclosing the present stabilizer compositions.

beagle dogs = test: 13 week feeding study in beagle dogs; format: in vivo, dog
Protocol: A second feeding study was conducted for a period of 13 weeks using beagle dogs to determine the maximum concentration of the mono-n-octyltin mercaptoacetic acid esters of this invention which can be present in the food of these animals without causing any observable toxicological effect. This concentration level is referred to as the "no-effect level" by the United States Food and Drug Administration. A stabilizer of this invention mono-n-octyltin S,S',S"-tris(isooctylmercaptoacetate) was added to the food consumed by the dogs in amounts of 0, 100, 300 and 1,000 parts per million. […] This level of toxicity is considered to be unexpectedly low for an organotin compound.
The criteria employed to determine the absence of toxicological effects included general appearance, health, growth and food intake; blood analyses for enzyme activity and serum protein; kidney damage by urine analysis; change in weight of internal organs and presence of the tin compound in the kidneys, bones, brain, liver and blood.

albino rats = test: acute oral median lethal dose in young male albino rats; format: in vivo, rat
Protocol: Young albino rats were used as the test animals. All animals were kept under observation for five days prior to experimental use, during which period they were checked for general physical health and suitability as test animals. The animals were housed in stock cages and were permitted a standard laboratory diet plus water ad libitum, except during the 16-hour period immediately prior to oral intubation, when food was withheld.
Selected groups of four male albino rats each were administered the undiluted test material at dose levels of 900, 1350, 2,025 and 3,038 mg. per kilogram of body weight. All doses were administered directly into the stomachs of the rats using a hypodermic syringe equipped with a ball-tipped intubating needle.
After oral administration of the test material, the rats were housed individually in suspended, wire-mesh cages and observed for the following 14 days. A necropsy was conducted on any animal which died during the study and on all animals sacrificed at the end of the 14-day observation period.
The acute oral median lethal dose (LD50) was calculated using the techniques of Weil, Thompson and Thompson and Weil as reported in the following references: […]

rats = details: force-feeding, table of Neumann; cited from earlier work
[4] = compared with di- and trioctyltin chlorides, cited from earlier work
[5] = prior art statements; cited from earlier work
[6] = 3% Acetic Acid (aqueous), 24 hours
[7] = 3% Acetic Acid (aqueous), 48 hours
[8] = 3% Acetic Acid (aqueous), 72 hours

Row | Molecule | Tin Content [1, 6] [ppm] | Tin Content [1, 7] [ppm] | Tin Content [1, 8] [ppm] | Tin Content ([1]; 8% Ethanol (aqueous), 24 hours) [ppm] | Tin Content ([1]; 50% Ethanol, 24 hours) [ppm] | Tin Content ([1]; 50% Ethanol, 48 hours) [ppm] | Tin Content ([1]; 50% Ethanol, 72 hours) [ppm] | Tin Content ([1]; Distilled Water, 72 hours) [ppm] | Tin Content ([1]; Distilled Water, 96 hours) [ppm] | Tin Content ([1]; Distilled Water, 120 hours) [ppm] | Tin Content ([1]; Heptane, 6 hours) [ppm] | Tin Content ([1]; Heptane, 8 hours) [ppm] | Tin Content ([1]; Heptane, 10 hours) [ppm] | LD50 (lethal dose for 1/2 the population) (rats) | further results
1 | CCCCCCC[CH2][Sn]([S]CC(=O)OCCCCCC(C)C)([S]CC(=O)OCCCCCC(C)C)[S]CC(=O)OCCCCCC(C)C [A, mono-n-octyltin-S,S',S"--tris(isooctyl mercaptoacetate)] | 0.02 | 0.03 | 0.02 | 0.00 | 0.01 | 0.02 | 0.02 | 0.00 | 0.00 | 0.00 | 0.02 | 0.03 | 0.03 |  | amount of stabilizer extracted [2]: ≤ 0.05 mg. per square decimeter; relative acute toxicity (in words) ([3]; isooctylmercaptoacetate derivatives, mono- vs di- and tri-n-octyltin): the least toxic; toxicity relative to corresponding di-n-octyltin compound (in words) ([3]; vs di-n-octyltin compound of Gloskey patent): less toxic than the corresponding di-n-octyltin compound; no-effect level (beagle dogs; beagle dogs, 13 weeks, in food): 300 parts per million; no effect level (in words) (beagle dogs; long term feeding studies): sufficiently low; acute oral median lethal dose (LD50) (albino rats; male albino rats, oral intubation, undiluted, 14 days observation): 2.48 g. per kilogram of weight; LD50 relative to other conventional organotin stabilizers (in words) (albino rats; vs other conventional organotin compounds employed as non-toxic stabilizers): considerably higher than the values for other conventional organotin compounds
2 | CCCCCCC[CH2][Sn]([CH2]CCCCCCC)([S]CC(=O)OCCCCCC(C)C)[S]CC(=O)OCCCCCC(C)C [B, di-n-octyltin-S,S'--bis(isooctyl mercaptoacetate), reference compound] | 0.00 | 0.00 | 0.00 | 0.00 | 0.03 | 0.05 | 0.03 | 0.00 | 0.00 | 0.00 | 0.03 | 0.02 | 0.02 | 1975 mg per kilogram of body weight | 
3 | CCCCCCC[CH2][Sn]([Cl])([Cl])[Cl] [monooctyltin trichloride] |  |  |  |  |  |  |  |  |  |  |  |  |  |  | acute oral toxicity (relative, in words) [4]: greater than the toxicity of either dioctyltin dichloride or trioctyltin chloride; acute oral toxicity (relative, in words) ([4]; listed as mono-n-octyltin trichloride): significantly more severe than the corresponding di- or tri-n-octyltin chlorides
4 | [Cl][Sn][Cl] [stannous chloride] |  |  |  |  |  |  |  |  |  |  |  |  |  |  | toxicity (in words) [5]: relatively little, if any, toxicity
5 | bis(tri-n-octyltin) sulfate |  |  |  |  |  |  |  |  |  |  |  |  |  | greater than 6,000 mg per kilogram of body weight | 
6 | di-n-octyltin maleate |  |  |  |  |  |  |  |  |  |  |  |  |  | 4,500 mg per kilogram of body weight | 
